Measured values published in EP0176049A2, “Aminoalkylnaphtalene derivatives having pharmacological activities” (priority 1984, dated 1986).

What was measured:
[1] = target: enzymes responsible for the enkephalins hydrolysis; assay: inhibition of the enzymes responsible for the enkephalins hydrolysis; format: biochemical
mouse [2] = assay: acute toxicity in the mouse; format: in vivo; conditions: i.p. administration
[3] = acute toxicity in the mouse; format: in vivo; conditions: in vivo, ip, i.p. administration
mouse [4] = assay: hot plate test (analgesic activity); format: in vivo
rat = assay: paw oedema by carrageenin according to Randall-Selitto (antiinflammatory activity); format: in vivo; conditions: ip

Compound | IC50 [1] [mM] | LD50 (mouse [2]) | LD50 [3] [mg/kg] | ED50 (mouse [4]; Mus musculus, route and species not restated for this value) [mg/kg] | kind of activity in the hot plate test (reversibility by naloxone) (mouse [4]; naloxone antagonism) | ED50 (mouse [4]; ip, mouse, analgesic activity) [mg/kg] | ED50 (rat) [mg/kg]
2-(3-dimethylamino-l-t-butyl-l-hydroxypropyl)-6-methoxy- naphtalene [Example 3] | 5 | 120,96 ± 5,32. mg/kg i.p. | – | – | – | – | –
CCC(O)(c1ccc2cc(OC)ccc2c1)C(C)CN(C)C (stereo not drawn) [Example 1] | 4 | – | 65.8 | 13.5 | partially reversible by naloxone | – | –
CCC(O)(c1ccc2cc(O)ccc2c1)C(C)CN(C)C (stereo not drawn) [Example 2] | – | – | 56.2 | – | – | 5.6 ± 1.51 | 1.25
